Consider three compounds from paper PMC12036875, “Mitochondria-targeting natural product rhein conjugated with dichloroacetate as the dual inhibitor of glycolysis and oxidative phosphorylation to off energize cancer cells and induce ROS storm” (Theranostics, 2025).

Read-outs that look alike come from different tables or passages of the source.

The subject of series [1] is 4T1, MCF-7, HeLa and CT26 cell lines. Kind of series: MTT cytotoxicity assay, statement over all tested cancer cell lines. The conditions noted are these: for IC50: 72 h, read-out: IC50 in all tested cell lines. It counts as cell-based. How it is done:
The cytotoxicity of Rhein-DCA conjugate was performed on various cancer cell lines, including breast cancer (4T1 and MCF-7), cervical cancer (HeLa), and colorectal carcinoma (CT26) via 3-(4,5)-dimethylthiahiazo(-z-y1)-3,5-di-phenytetrazoliumromide (MTT) assay. […] Moreover, the cytotoxicity of these compounds (rhein, DCA, R + D and Rhein-DCA) for normal cells (293T) was lower than that of those tested cancer cells.
The cytotoxicity of rhein, DCA, the mixture of rhein and DCA (R + D) and Rhein-DCA conjugate was evaluated on HeLa, MCF-7, CT26, 4T1 and 293T cell lines by MTT assay. Cells were seeded in 96-well plates at a density of 3 × 10^3 cells per well in the corresponding complete culture medium and cultured for 24 h. Then cells were incubated with 200 μL fresh medium containing the respective desired concentrations of rhein, DCA, R + D (with the concentrations being 100, 66.7, 44.4, 29.6, 19.8, 13.2, 8.8, 5.9, 3.9, 2.6, 1.7 and 1.2 μM, respectively) and Rhein-DCA conjugate (with the concentrations being 29.6, 19.8, 13.2, 8.8, 5.9, 3.9, 2.6, 1.7, 1.2, 0.8, 0.5 and 0.3 μM, respectively). After 72 h of incubation, 20 μL of MTT solution (5 mg/mL) was added to each well and the plates were cultured for another 4 h. The medium was carefully removed, and 110 μL of DMSO was added into per well to dissolve the formazan. The absorption densities at 590 nm were recorded with microplate reader. The quoted IC50 values were presented as the mean ± standard deviation.
On the technique in general: Tetrazolium dyes change colour on reduction, which living cells bring about.

Series [2] deals with 4T1 cells. Put plainly: Oxygen consumption rate (Seahorse). In kind it is cell-based, Mouse. To be noted: 6.25 μM, 24 h. An excerpt: TMRE is a lipophilic cationic fluorescent probe (Ex = 550 nm, Em = 575 nm). The accumulation of TMRE within the mitochondria would reduce with the mitochondrial depolarization, resulting in a decrease in fluorescence intensity. […] The integrity of mitochondria is significant for mitochondrial bioenergy production. Given the influence of ETC, NADH dehydrogenase, ATP synthase and the decrease of Δψm, we speculated that the ATP production from OXPHOS would be hindered by Rhein-DCA conjugate. Mitochondrial bioenergetic processes of 4T1 cells was measured by oxygen consumption rate (OCR) to reflect the capability of OXPHOS.
The mitochondrial bioenergetics of 4T1 cells was investigated by Seahorse Extracellular Flux analyser. 4T1 cells were seeded in 24-well plates (Seahorse Bioscience) at a density of 2 × 10^4 cells per well and incubated for 24 h at 37 °C in 5% CO2 atmosphere. The cells were treated with indicated drugs at a concentration of 6.25 μM for 24 h. At the same time, XF sensor cartridges were hydrated overnight in a CO2-free environment. The cells were cultured in the incubator for 1 h at 37 °C without CO2 after washed with Seahorse XF assay medium. Three baseline measurements of OCR were detected with Seahorse XFe24 analyzer when the oligomycin (1.0 μM, ATP synthase complex inhibitor), FCCP (1.0 μM, ATP synthesis uncoupler […]) and the mixture of antimycin-A (1.0 μM, inhibitor of complex III) and rotenone (1.0 μM, inhibitor that prevents the transfer of electrons from the Fe-S center in complex I to ubiquinone) were sequentially injected for the detection of the oxygen consumption rate.

Series [3] relates to 4T1 cells. Kind of series: Intracellular ATP detection. In kind it is cell-based, Mouse. The conditions noted are these: 6.25 μM, vs control. How it is done: Rhein-DCA conjugate achieved synergetic fatal energy depletion in tumor cells.
The intracellular ATP content was measured with PhosphoWorks™ Colorimetric ATP Assay Kit. Specifically, 4T1 cells and 293T cells were seeded in 12-well plates at a density of 2 × 10^5 cells per well and further cultured for 24 h at 37 °C in an atmosphere of 95% air and 5% CO2. For the control group, the culture medium was replaced with fresh medium. For the rhein, DCA, R + D, and Rhein-DCA groups, the medium was replaced with fresh medium containing the indicated drugs at a concentration of 6.25 μM. It should be noted that in the Rhein-DCA + CsA group, the cells were pretreated with CsA (2.5 μM) for 1 h at 37 °C before being cultured with Rhein-DCA. The cells were collected and suspended in 80 μL triton-X-100 (1% in PBS) to obtain cell lysates by twice freeze-thaw. Then the supernatant was collected after centrifugation at 9391 G for 10 min for subsequent analysis. Finally, 50 μL of supernatant was separately mixed evenly with 50 μL ATP working solution and the mixture was incubated for 30 min at room temperature. The absorbance at 570 nm was monitored with microplate reader.

For series [4], the system named is tumor-associated macrophages in 4T1 tumors. Put plainly: Tumor-associated macrophages detection (flow cytometry). In kind it is in vivo, Balb/c mice. To be noted: primary 4T1 tumors; for M1 macrophages (CD80+ in CD11b+ cells) / M2 macrophages (CD206+ in CD11b+ cells): 20 mg/kg oral, 24 days; for M1 macrophages (CD80+ in CD11b+ cells): vehicle 5.8%; for M2 macrophages (CD206+ in CD11b+ cells): vehicle 36.5%. How it is done:
To further investigate the immunomodulatory effects of the Rhein-DCA conjugate, we analyzed TAMs by flow cytometry, where CD11b and CD80 antibodies were labeled for M1-phenotype macrophages (Figure 7D), CD11b and CD206 antibodies were labeled for M2-phenotype macrophages (Figure 7E).
The macrophages within the tumor microenvironment of tumor tissues were further analyzed. Tumor tissues were minced into small pieces and then digested in a solution containing 1 mg/mL of collagenase IV, 0.1 mg/mL of hyaluronidase and 0.1 mg/mL of DNAase I at 37 °C for 1.5 h. The supernatants containing single cells were collected by filtering through 200 mesh filters. Cells were obtained by centrifugation and further blocked with anti-CD16/32 (1 μg/100 μL) for 10 min in an ice bath. Thereafter, FITC anti-mouse CD11b (1 μg/100 μL) and PE anti-mouse CD80 (1 μg/100 μL) antibodies were employed to stain the cells in an ice bath for 20 min. After that, the cells were collected and fixed with 4%-paraformaldehyde at room temperature for 20 min, and then stained with APC anti-mouse CD206 antibody (0.5 μg/100 μL, in 1 × Fix/Perm buffer) at room temperature in the dark for 20 min. Finally, cells were analyzed with flow cytometry after being resuspended in 1 × Perm/Wash buffer.
(In general: A flow cytometer gives signals particle by particle.)

As a reminder, the IC50 is the concentration that gives 50% inhibition. Regarding `O=C(O)C(Cl)Cl` [DCA, Dichloroacetate], the IC50 in series [1] was over 100 µM. In addition, in the series with 4T1 cells [2], the “effect on OCR / cellular OXPHOS (basal respiration, ATP production, maximal respiration)” value (“effect on OCR / cellular OXPHOS” for short) is “minor effect”. The “intracellular ATP amount” value in the series with 4T1 cells [3] was “slight increase”. In series [4], the “M1 macrophages (CD80+ in CD11b+ cells)” value was 7.7% and the “M2 macrophages (CD206+ in CD11b+ cells)” value came to 13.6%.

Consider `O=C(O)c1cc(O)c2c(c1)C(=O)c1cccc(O)c1C2=O` [Rhein, 4,5-dihydroxyanthraquinone-2-carboxylic acid], for which the IC50 in series [1] (MTT, summary over the cell lines) fell in the range of 40 to 80 µM. The “effect on OCR / cellular OXPHOS” value in the series with 4T1 cells [2] was “moderate effects”. Moreover, the “intracellular ATP amount” value in the series on 4T1 cells [3] is listed as “decrease”. Further, in series [4], the “M1 macrophages (CD80+ in CD11b+ cells)” value turned out to be 6.0% and the “M2 macrophages (CD206+ in CD11b+ cells)” value stood at 16.6%.

With `O=C(OCCOC(=O)C(Cl)Cl)c1cc(O)c2c(c1)C(=O)c1cccc(O)c1C2=O` [Rhein-DCA], the “increase of cytotoxicity in comparison with individual rhein, DCA and their combination” value in series [1] (all four cancer cell lines) is on record as “at least 10 fold”. Further, in the series with 4T1 cells [2], the “effect on OCR / cellular OXPHOS” value was “complete disruption”. The “intracellular ATP amount” value in the series on 4T1 cells [3] is reported as “significant decrease”. Further, in series [4], the “M1 macrophages increase vs vehicle” value was 1.8 fold, the “M2 macrophages reduction vs vehicle” value is reported as 9.4 fold, the “M1 macrophages (CD80+ in CD11b+ cells)” value worked out at 10.3% and the “M2 macrophages (CD206+ in CD11b+ cells)” value stood at 3.9%.
